Measurements taken from PMC10249896, “AI-Assisted chemical probe discovery for the understudied Calcium-Calmodulin Dependent Kinase, PNCK” (PLOS Computational Biology, 2023).
Several values for one entry are separate records, joined by “and”; a condition that tells them apart may be missing. Identical values can stand only once.

Tests used:
[1] = biological target: T1, GST-tagged PNCK recombinant protein (Homo sapiens, UniProt Q6P2M8); experiment: ADP-Glo Kinase Assay, biochemical PNCK inhibitor screen; details: compound 10uM, 25uM ATP, normalized to DMSO and staurosporine controls; for inhibition at 10 µM: read-out: Avg. Normalized % Inhibition, 10uM, ADP Kinase Glo
T1 construct: GST; purchased Novus NBP1-99886
Protocol: ADP-Glo Kinase Assay (V6930, Promega) was used to screen the first round of compounds against PNCK. […] Autocamtide-II (GenScript RP10271) was used as the peptide substrate. This peptide was dissolved in water and prepared immediately prior to the assay. Calcium/Calmodulin 10X (Abcam ab189137) solution was used to create a custom kinase buffer: 40mM Tris,pH 7.5; 20mM MgCl2; 0.1mg/ml BSA; 50μM DTT and Ca2+/Calmodulin solution (0.03μg/μl, Calmodulin, 1mM Tris,pH 7.3, 0.5mM CaCl2). […] A standard curve was then done to determine the amount of protein needed to generate a signal in the linear range of the ATP curve. 100ng of PNCK and 2ng of substrate was used per well in the 96-well plate format of this assay. […] Plates were read using the Clariostar Plus. Data was normalized to a DMSO and staurosporine controls.
(§1) Data analysis of ADP Kinase Glo results were carried out per the manufacturer’s instructions. Results were represented as a percent decrease in activity. Data was normalized to staurosporine (positive control) as 100% decrease and DMSO (negative control) as a 0% decrease. Data for NanoBRET was analyzed by dividing the acceptor by the donor emission and […] to obtain raw millibret units (mBU). Background was subtracted using control emission averages. Data was normalized to positive and negative controls of staurosporine and DMSO. Concentration-response curves were plotted in GraphPad Prism 8 and IC50s were extrapolated using non-linear fit with concentrations transformed to logarithmic scale. Baseline was held constant and represented the average mBU of staurosporine controls while the top was constrained to represent the average mBU of DMSO controls. Error bars on dose-response curves represent standard deviations.

[2] = biological target: T2, PNCK Nano-luciferase fusion (Homo sapiens, UniProt Q6P2M8); experiment: NanoBRET Target Engagement Intracellular Kinase Assay, cell-based PNCK binding screen and dose response in HEK293 cells; details: for inhibition at 1 µM: compound 1uM, read-out: Avg. Normalized % Inhibition, 1uM, Nanobret; for inhibition at 1 µM / inhibition at 10 µM / IC50: HEK293; for inhibition at 1 µM / inhibition at 10 µM: K10 tracer 1uM, normalized to staurosporine and DMSO; for inhibition at 10 µM: compound 10uM, read-out: Avg. Normalized % Inhibition, 10uM, Nanobret; for NanoBRET binding, result in words: cell-based screen / comparison with parent hit; for IC50: 8-point concentration-response; for cell permeability: stated on testing in NanoBRET assay
T2 construct: host or cells: HEK293
T2 sequence (Q6P2M8 whole entry, the tested form may be a part): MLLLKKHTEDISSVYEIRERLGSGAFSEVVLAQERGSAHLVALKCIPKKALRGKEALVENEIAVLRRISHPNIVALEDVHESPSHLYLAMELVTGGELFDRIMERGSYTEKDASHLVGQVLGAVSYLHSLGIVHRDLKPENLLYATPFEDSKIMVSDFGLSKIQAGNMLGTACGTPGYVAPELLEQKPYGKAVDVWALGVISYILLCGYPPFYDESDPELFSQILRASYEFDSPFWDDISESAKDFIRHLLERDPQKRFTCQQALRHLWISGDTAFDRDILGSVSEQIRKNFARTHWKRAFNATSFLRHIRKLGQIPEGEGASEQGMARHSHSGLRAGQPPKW
Protocol: The NanoBRET Target Engagement Intracellular Kinase Assay (Promega N2520) is a cell-based binding screen which reads loss of BRET signal as a result of target binding. A PNCK Nano-luciferase fusion vector plasmid was generated custom by Promega. The K-10 tracer was used for the assay, as determined by Promega. The plasmid was maxiprepped by Genewiz for use in all future assays. HEK293 cells were seeded in a T175 flask in DMEM with 10% FBS. The following day, cells were counted to 10,000, resuspended in assay media (Optimem with no phenol red, 1% FBS). Plasmid and transfection reagent (Fugene HD, Promega E2311) were added to the mixture and cells were seeded in a white 96-well plate. After 20–24 hours, media was changed, and the assay proceeded according to protocol. K10 tracer was added at the recommended concentration of 1uM while compounds were initially screened at both 10uM and 1uM. Cells incubated with compound at 37 degrees Celsius for a maximum of 2 hours before the plate was read using Clariostar Plus. Data was normalized to Staurosporine and DMSO controls. For compounds selected for further analysis, dose response curves were generated using the same testing protocol but at 8 different concentrations: 24uM, 12uM, 6uM, 3uM, 1.5uM, .75uM 0.375uM and 0.1875uM. UM195 was tested with concentrations from 12uM to 0.09375. Similarly, compounds from the analog by catalog analysis were tested at concentrations from 24uM to 0.1875uM.
as §1

SMILES	inhibition at 1 µM [2] [%]	inhibition at 10 µM [2] [%]	other results
COc1cccc([C@@H](C)NC(=O)c2ccc(N3CC(=O)NC3=O)cc2)c1 [UM_032]	0	17.4	Avg. Normalized % Inhibition, 10uM, ADP Kinase Glo [1]: 69.5%; inhibition at 10 µM [1]: > 50%
O=C(O)c1ccc(-c2nc3c([nH]2)CCN(C(=O)c2cc(C4CC4)n[nH]2)C3)cc1 [UM_034]	6.51	7.78	inhibition at 10 µM [1]: 51.7%
CC(C)c1ccc(NS(=O)(=O)c2cc(-c3ccc(=O)[nH]n3)ccc2Cl)cc1 [UM_029]	0	52	Avg. Normalized % Inhibition, 10uM, ADP Kinase Glo [1]: 81.53%
O=c1[nH]c2ccccc2n1CCCSc1nnc2c(n1)[nH]c1ccccc12 [UM_037, 1-(3-5H-[1,2, 4]triazino [5,6-b]indol-3-ylsulfanylpropyl)-2,3-dihydro-1H-1,3-benzodiazol-2-one]	–	–	Avg. Normalized % Inhibition, 10uM, ADP Kinase Glo [1]: minimal inhibitory activity; Dose-Response Curve Data (NanoBRET signal, replicates) ([2]; Concentration 1.20E-05 M, listed as UM37): 6.25 and 6.50 and 6.41; Dose-Response Curve Data (NanoBRET signal, replicates) ([2]; Concentration 1.50E-06 M, listed as UM37): 7.94 and 8.66 and 7.96; Dose-Response Curve Data (NanoBRET signal, replicates) ([2]; Concentration 1.88E-07 M, listed as UM37): 8.18 and 8.37 and 8.94; Dose-Response Curve Data (NanoBRET signal, replicates) ([2]; Concentration 2.40E-05 M, listed as UM37): 4.85 and 4.94 and 5.59; Dose-Response Curve Data (NanoBRET signal, replicates) ([2]; Concentration 3.00E-06 M, listed as UM37): 8.21 (2×) and 8.11; Dose-Response Curve Data (NanoBRET signal, replicates) ([2]; Concentration 3.75E-07 M, listed as UM37): 8.11 and 8.67 and 8.63; Dose-Response Curve Data (NanoBRET signal, replicates) ([2]; Concentration 6.00E-06 M, listed as UM37): 7.28 and 7.38 and 7.80; Dose-Response Curve Data (NanoBRET signal, replicates) ([2]; Concentration 7.50E-07 M, listed as UM37): 8.16 and 8.66 and 8.74
O=C(O)Cc1cc(C2CCN(C(=O)Cc3n[nH]c4ccccc34)CC2)[nH]n1 [UM_039]	2.17	6.89	Avg. Normalized % Inhibition, 10uM, ADP Kinase Glo [1]: 91% and 91.1687%; NanoBRET binding, result in words [2]: negligible activity
Cc1ccc(F)c(S(=O)(=O)Nc2ccc(-c3nn(C)cc3C(=O)O)cc2)c1 [UM_023]	2.86	17.6	inhibition at 10 µM [1]: 38.2%
COc1ccc(C(=O)/C=C/c2n[nH]c3cc(C(=O)O)ccc23)c(F)c1 [UM_020]	0	0	Avg. Normalized % Inhibition, 10uM, ADP Kinase Glo [1]: Negligible
COc1ccccc1CNc1ncnc2sc(C(=O)O)c(C)c12 [UM_035]	0	13.6	Avg. Normalized % Inhibition, 10uM, ADP Kinase Glo [1]: 75.66%
O=C(O)c1n[nH]c2c1CN(C(=O)c1ccc(N3CCOCC3)cc1)CC2 [UM_030]	0	11.3	Avg. Normalized % Inhibition, 10uM, ADP Kinase Glo [1]: Negligible
Cc1ccccc1CN1CCC(CNc2ncnc3sc(C(=O)O)c(C)c23)CC1 [UM_027]	7.16	23	inhibition at 10 µM [1]: 63.9%
CC(C)(C(=O)O)c1ccc(NS(=O)(=O)c2cc(F)c(F)cc2F)cc1 [UM_025]	0	17.2	inhibition at 10 µM [1]: 75.3%
COc1cc(OC)c(Nc2ncnc3sc(C(=O)O)c(C)c23)cc1Cl [UM_028]	3.45	16.7	Avg. Normalized % Inhibition, 10uM, ADP Kinase Glo [1]: Negligible
O=C(O)c1ccc(F)c(S(=O)(=O)Nc2ccc(-c3cnco3)cc2)c1 [UM_021]	0	0	inhibition at 10 µM [1]: 33.3%
COc1ccc(CNC(=O)c2cc(C3CC3)[nH]n2)cc1C(=O)O [UM_019]	0	0	Avg. Normalized % Inhibition, 10uM, ADP Kinase Glo [1]: Negligible
N#Cc1cnc(Sc2nnc(-c3ccccc3)o2)cn1 [UM_253]	4.54	55.6	–
Cc1nc(N2CCC[C@H]3C(=O)NC[C@H]32)c2c(C)c(C)sc2n1 [UM_194]	1.43	27.6	–
CN(CC(=O)NC(C)(C)C)Cn1nc2c3c(cccc31)C(=O)c1ccccc1-2 [UM_224]	18	33.3	–
O=C(O)c1ccc(-c2nc(O)c3c4c(sc3n2)CCCC4)cc1 [UM_233]	7.37	14.2	–

SMILES	inhibition at 1 µM [2] [%]	inhibition at 10 µM [2] [%]	other results
Cc1nnc(SCCCn2c(=O)[nH]c3ccccc32)n1N [UM_275]	12	52.2	–
Cc1cc(NC(=O)[C@@H]2CCO[C@H]2c2nccn2C)nnc1C [UM_221]	0	14.7	–
O=c1oc2cc(OC3OC(CO)C(O)C(O)C3O)c(Cl)cc2c2c1CCCC2 (stereo not shown) [UM_226]	21.8	51.6	–
O=c1[nH]c(CSc2nc3ccccc3o2)nc2ccc(Cl)cc12 [UM_280]	33.4	74.7	IC50 [2]: 14.9 µM; NanoBRET binding, result in words [2]: did not demonstrate significantly improved binding
O=C(O)c1cccnc1SCCCN1C(=O)c2cccc3cccc(c23)C1=O [UM_216]	2.34	25.4	–
Nn1c(SCc2ccc(Br)cc2)nnc(CCC(=O)O)c1=O [UM_192]	0	0	cell permeability [2]: not cell permeable
Cc1ccc2[nH]c(SCc3cc(=O)n4ccccc4n3)nc2c1 [UM_197]	1.23	27	–
Cc1nc2c(sc3nc(N4CCOCC4)c4c(c32)CC(C)(C)OC4)c(=O)o1 [UM_225]	21.7	47.7	–
O=C1CNC(=O)N1CCCOc1ccc2c3c(c(=O)oc2c1)CCCCC3 [UM_258]	27.9	74	–
CCc1nc(N)nc(SCCCn2c(=O)[nH]c3ccccc32)n1 [UM_276]	10.9	37.8	–
Cc1cc(C)n2nc(SCc3nc4ccccc4s3)nc2n1 [UM_218]	16.7	61.2	–
O=C(CSc1ncccn1)c1ccc(O)c(O)c1 [UM_243]	–	–	cell permeability [2]: not cell permeable
Cc1nc2c3ccccc3nc(SCCCn3c(=O)[nH]c4ccccc43)n2n1 [UM_277]	37.1	68.6	IC50 [2]: 16.1 µM
Cc1cc(C)n2nc(SCc3nc(-c4ccccc4)no3)nc2n1 [UM_217]	10.5	49.3	–
CC1CCc2c(sc(NC(=O)CSc3ncnc4[nH]cnc34)c2C(N)=O)C1 (stereo not shown) [UM_251]	63.2	91.8	IC50 [2]: 2.53 µM; Dose-Response Curve Data (NanoBRET signal, replicates) ([2]; Concentration 1.20E-05 M): 4.13 and 4.23 and 4.54 and 4.39; Dose-Response Curve Data (NanoBRET signal, replicates) ([2]; Concentration 1.50E-06 M): 6.59 and 7.07 and 6.74 and 7.03; Dose-Response Curve Data (NanoBRET signal, replicates) ([2]; Concentration 1.88E-07 M): 7.33 and 7.01 and 6.90 and 7.62; Dose-Response Curve Data (NanoBRET signal, replicates) ([2]; Concentration 2.40E-05 M): 4.23 and 3.92 and 4.54 and 4.39; Dose-Response Curve Data (NanoBRET signal, replicates) ([2]; Concentration 3.00E-06 M): 6.43 and 6.10 and 6.50 and 6.24; Dose-Response Curve Data (NanoBRET signal, replicates) ([2]; Concentration 3.75E-07 M): 7.22 and 7.21 and 7.00 and 7.10; Dose-Response Curve Data (NanoBRET signal, replicates) ([2]; Concentration 6.00E-06 M): 4.64 and 5.22 and 4.89 and 5.32; Dose-Response Curve Data (NanoBRET signal, replicates) ([2]; Concentration 7.50E-07 M): 7.22 and 6.99 and 7.34 and 6.94; NanoBRET binding, result in words [2]: improving from the IC50 of UM_228 by one order of magnitude
Cc1[nH]ccc1C(=O)NC1CCC(N2C(=O)CCC2=O)CC1 (stereo not shown) [UM_211]	0	0	–
CCn1c(SCCCn2c(=O)[nH]c3ccccc32)n[nH]c1=O [UM_274]	34.2	71.8	IC50 [2]: 10.3 µM
